Results taken from PubChem BioAssay AID1963834 (Molecular Pharmacology Branch, DTP, NCI, 2024).

Test system: 873145-292-R-J1-PDC complex spheroid viability
Assay: Anticancer human tumor 873145-292-R-J1-PDC patient-derived renal clear cell carcinoma cell line growth inhibition [POLQ]
Conditions: for IC50: curve of first compound; for viability, T/C: stronger effect = lower value; active = viability on the fitted dose curve at most 10% of control; inactive = the rest
Procedure, shortened: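 Three-cell-type spheroids modelling solid tumor plus stroma served as the readout system; POL inhibitors were tested individually and in combination, concentration ranges set by clinical Cmax where known.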
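Note: spheroids exposed to compounds for 7 days before viability readout.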
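Throughout, for viability, T/C: luminescence signal used as surrogate for viable cell content; 100% = DMSO vehicle control viability.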

CNCc1ccc(-c2[nH]c3cc(F)cc4c3c2CCNC4=O)cc1 + Cc1cccc(N(C)C(=O)C2C(O)CCN2c2nc(C)cc(C(F)(F)F)c2C#N)c1
inactive: viability, T/C (second compound 0.0316 µM, first compound 0.0316 µM) 93.1% | viability, T/C (second compound 0.0316 µM, first compound 0.1 µM) 111% | viability, T/C (second compound 0.0316 µM, first compound 0.316 µM) 96.6% | viability, T/C (second compound 0.0316 µM, first compound 1 µM) 96.4% | viability, T/C (second compound 0.0316 µM, first compound 3.16 µM) 110% | viability, T/C (second compound 0.0316 µM, first compound 10 µM) 96.2% | viability, T/C (second compound 0.1 µM, first compound 0.0316 µM) 110% | viability, T/C (second compound 0.1 µM, first compound 0.1 µM) 94.1% | viability, T/C (second compound 0.1 µM, first compound 0.316 µM) 89.5% | viability, T/C (second compound 0.1 µM, first compound 1 µM) 91.8% | viability, T/C (second compound 0.1 µM, first compound 3.16 µM) 108% | viability, T/C (second compound 0.1 µM, first compound 10 µM) 99.9% | viability, T/C (second compound 0.316 µM, first compound 0.0316 µM) 111% | viability, T/C (second compound 0.316 µM, first compound 0.1 µM) 101% | viability, T/C (second compound 0.316 µM, first compound 0.316 µM) 99% | viability, T/C (second compound 0.316 µM, first compound 1 µM) 91.3% | viability, T/C (second compound 0.316 µM, first compound 3.16 µM) 97.5% | viability, T/C (second compound 0.316 µM, first compound 10 µM) 111% | viability, T/C (second compound 1 µM, first compound 0.0316 µM) 99.5% | viability, T/C (second compound 1 µM, first compound 0.1 µM) 102% | viability, T/C (second compound 1 µM, first compound 0.316 µM) 99.1% | viability, T/C (second compound 1 µM, first compound 1 µM) 109% | viability, T/C (second compound 1 µM, first compound 3.16 µM) 101% | viability, T/C (second compound 1 µM, first compound 10 µM) 95.9% | viability, T/C (second compound 3.16 µM, first compound 0.0316 µM) 102% | viability, T/C (second compound 3.16 µM, first compound 0.1 µM) 91% | viability, T/C (second compound 3.16 µM, first compound 0.316 µM) 97.6% | viability, T/C (second compound 3.16 µM, first compound 1 µM) 87.9% | viability, T/C (second compound 3.16 µM, first compound 3.16 µM) 101% | viability, T/C (second compound 3.16 µM, first compound 10 µM) 107% | viability, T/C (second compound 10 µM, first compound 0.0316 µM) 88.6% | viability, T/C (second compound 10 µM, first compound 0.1 µM) 90.4% | viability, T/C (second compound 10 µM, first compound 0.316 µM) 106% | viability, T/C (second compound 10 µM, first compound 1 µM) 88.8% | viability, T/C (second compound 10 µM, first compound 3.16 µM) 106% | viability, T/C (second compound 10 µM, first compound 10 µM) 94.5%
> 10 µM: IC50 (second compound 0.0316 µM) | IC50 (second compound 0.1 µM) | IC50 (second compound 0.316 µM) | IC50 (second compound 1 µM) | IC50 (second compound 3.16 µM) | IC50 (second compound 10 µM)
